Laboratory results reported in PubChem BioAssay (NCI).
“And” between values parts separate entries of the source, which are not always exact repeats. Equal values may be shown once.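 Step 1: Grow cells in 96-well plates. Step 2: Expose to compound for 48 hours at 5 concentrations. Step 3: Interpolate endpoints linearly; if unreached, use highest concentration. Here, GI50 denotes the concentration required for 50% inhibition of growth. At the TGI there is no net growth.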

Key:
Experiment in all cases: NCI tumour cell line growth inhibition, 48 h
SW-620 colon = system: SW-620 colon
LOX IMVI melanoma = system: LOX IMVI melanoma
COLO 205 colon = system: COLO 205 colon
NCI-H226 lung = system: NCI-H226 lung
NCI-H23 lung = system: NCI-H23 lung
OVCAR-8 ovarian = system: OVCAR-8 ovarian
OVCAR-5 ovarian = system: OVCAR-5 ovarian
SK-MEL-28 melanoma = system: SK-MEL-28 melanoma
UACC-62 melanoma = system: UACC-62 melanoma
EKVX NSCLC = system: EKVX NSCLC

SMILES	GI50 (SW-620 colon)	TGI (SW-620 colon)	GI50 (LOX IMVI melanoma)	TGI (LOX IMVI melanoma)	GI50 (COLO 205 colon)	TGI (COLO 205 colon)	GI50 (NCI-H226 lung)	TGI (NCI-H226 lung)	GI50 (NCI-H23 lung)	TGI (NCI-H23 lung)	GI50 (OVCAR-8 ovarian)	TGI (OVCAR-8 ovarian)	GI50 (OVCAR-5 ovarian)	TGI (OVCAR-5 ovarian)	GI50 (SK-MEL-28 melanoma)	TGI (SK-MEL-28 melanoma)	GI50 (UACC-62 melanoma)	TGI (UACC-62 melanoma)	GI50 (EKVX NSCLC)	TGI (EKVX NSCLC)
FC(F)(F)c1cccc(Nc2nccc(-c3cnn4nc(-c5ccccc5)ccc34)n2)c1	8.65 µM	> 21.4 µM	6.18 µM	> 17.7 µM	11.8 µM	> 25 µM	> 25 µM	> 25 µM	9.13 µM	> 25 µM	6.54 µM	> 18.4 µM	> 22.9 µM	> 25 µM	8.11 µM	> 20.4 µM	14.4 µM	> 25 µM	> 21.2 µM	> 25 µM
COc1cc([N+](=O)[O-])cc2c3c(n(C)c12)[C@@]1(C)CCC2c4ccc(OCc5ccccc5)cc4CCC2C1C3 (stereo not given in full)	90.6 µM	> 100 µM	65 µM	> 100 µM	29.3 µM	> 100 µM	80.4 µM	> 100 µM	68.8 µM	> 100 µM	> 100 µM	> 100 µM	> 100 µM	> 100 µM	> 100 µM	> 100 µM	> 100 µM	> 100 µM	68.5 µM	> 100 µM
[Cl-].[Dy+3].[O-]/N=C(\c1ccccc1)c1ccccn1.[O-]/N=C(\c1ccccc1)c1ccccn1.[O-]/N=C(\c1ccccc1)c1ccccn1	41.8 µM	> 100 µM	21.9 µM	54.1 µM	33.5 µM	> 100 µM	17.3 µM	58.4 µM	37.2 µM	> 100 µM	35.8 µM	> 100 µM	42.4 µM	> 100 µM	27.6 µM	90.8 µM	32.5 µM	> 100 µM	31.2 µM	> 100 µM
C/C(CC(=O)Nc1ccc(C)cc1C)=N/N=C(N)N		> 100 µM		> 100 µM		> 100 µM		> 100 µM		> 100 µM		> 100 µM		> 100 µM		> 100 µM		> 100 µM		> 100 µM
O=C(/C(Br)=C/c1ccccc1)c1ccccc1	1.63 µM	3.9 µM	0.433 µM	1.59 µM	1.09 µM	2.41 µM	3.5 µM	14.1 µM	2.71 µM	8.38 µM	2.75 µM	10.2 µM	3.21 µM	9.22 µM	5.31 µM	23.1 µM	1.94 µM	3.81 µM	10.6 µM	23.3 µM
CC(C)(C)OC(=O)N1CCc2c(sc3ncnc(N/N=C/c4cccc5ccccc45)c23)C1	3.87 µM	> 100 µM	3.84 µM	25.5 µM	2.79 µM	40.8 µM	5.29 µM	34.7 µM	5.25 µM	> 100 µM	4.23 µM	> 100 µM	4.71 µM	> 100 µM	7.78 µM	> 100 µM	2.65 µM	10.2 µM	3.64 µM	> 100 µM
CC(=O)OCCN1c2ccccc2Sc2cnccc21		> 10 µM		> 10 µM		> 10 µM		> 10 µM		> 10 µM		> 10 µM		> 10 µM		> 10 µM		> 10 µM		> 10 µM
COc1cc2c(c(O)c1Br)C(=O)c1c(O)cc(C[C@H](C)O)cc1[C@H]2[C@H]1c2cc(C[C@H](C)O)cc(O)c2C(=O)c2c1cc(OC)c(Br)c2O	5.36 µM and 19.9 µM	67.5 µM and > 100 µM	6.57 µM and 11.4 µM	16.2 µM and 34.4 µM	2.32 µM and 6.74 µM	9.21 µM and 24.9 µM	6.33 µM and 10.6 µM	30.9 µM and 47.6 µM	5.85 µM and 4.83 µM	42.1 µM and 39.3 µM	3.23 µM and 7.56 µM	67.5 µM and > 100 µM	11.1 µM and 17.1 µM	27.4 µM and 46.5 µM	4.54 µM and 5.6 µM	32.9 µM and > 100 µM	2.47 µM and 17.5 µM	13.7 µM and 90.7 µM	4.86 µM and 6.86 µM	16.3 µM and 27.5 µM
NC(=O)C(=O)N/N=C(\CC1(O)C(=O)Nc2ccccc21)c1ccc2ccccc2c1 (stereo not given)		> 100 µM		85.5 µM		41.1 µM		> 100 µM		76.7 µM		> 100 µM		> 100 µM		> 100 µM		77.9 µM		> 100 µM
O=C1/C(=C/c2ccccc2)CNC/C1=C\c1ccccc1		2.11 µM		2.05 µM		3.11 µM		6.18 µM		4.27 µM		5.88 µM		6.21 µM		3.9 µM		3.69 µM		16.5 µM
CC[C@@H]1CN(C)[C@H]2Cc3c([nH]c4ccccc34)C(=O)C[C@H]1C2C(=O)OC (stereo not given in full)		> 100 µM		> 100 µM		> 100 µM		> 100 µM		> 100 µM		> 100 µM		> 100 µM		> 100 µM		> 100 µM		> 100 µM
C=C1C(=O)O[C@H]2[C@H]1CC/C(COC(=O)c1ccc3ccccc3c1)=C\CC[C@@]1(C)O[C@@H]21	0.356 µM	1.39 µM	0.406 µM	1.46 µM	1.36 µM	2.94 µM	1.42 µM	3.21 µM	1.6 µM	3.36 µM	1.1 µM	2.56 µM	1.59 µM	3.57 µM	1.47 µM	2.96 µM	1.22 µM	2.53 µM	1.63 µM	3.63 µM
O=c1c2cc([N+](=O)[O-])ccc2sc2ccsc12		> 100 µM		> 100 µM		> 100 µM		> 100 µM		> 100 µM		> 100 µM		> 100 µM		> 100 µM		> 100 µM		> 100 µM
CC(C)c1nc(CN(C)C(=O)N[C@H](C(=O)N[C@@H](Cc2ccccc2)C[C@H](O)[C@H](Cc2ccccc2)NC(=O)OCc2cncs2)C(C)C)cs1	34.9 µM	> 100 µM	18.9 µM	40.1 µM	17.6 µM	38.2 µM	18.8 µM	39.4 µM	42.6 µM	> 100 µM	36.3 µM	> 100 µM	28.2 µM	71.5 µM	21.5 µM	47.2 µM	18.5 µM	34.9 µM	4.11 µM	> 100 µM
COc1ccc(-c2cc(=O)c3c(OC)c(OC)c(OC)cc3o2)cc1		> 100 µM		81.5 µM		51.7 µM		> 100 µM		> 100 µM		> 100 µM		> 100 µM		> 100 µM		> 100 µM		> 100 µM
CC(C)(CC(=O)Nc1ccccc1)C(=O)O		> 100 µM		> 100 µM		> 100 µM		> 100 µM		> 100 µM		> 100 µM		> 100 µM		> 100 µM		> 100 µM		> 100 µM
